The source made the active and inactive calls. The rule behind the calls is not given here.
Tests used:
HCC827 = test: Antiproliferative activity against human HCC827 cells harboring EGFR E746_A750 deletion mutant after 48 hrs by MTT assay; type: functional, cell-based
[1] = biological target: Epidermal growth factor receptor (Homo sapiens, UniProt P00533, L858R); type: cell-based
[2] = biological target: Epidermal growth factor receptor (Homo sapiens, UniProt P00533)
Description: Inhibition of recombinant human GST-tagged EGFR cytoplasmic domain (668 to 1210 residues) expressed in baculovirus expression system by Z'-Lyte assay

A549 = test: Antiproliferative activity against human A549 cells harboring wild type EGFR after 48 hrs by MTT assay; type: functional, cell-based
A-431 = test: Antiproliferative activity against EGFR over-expressing human A431 cells after 48 hrs by MTT assay; type: functional, cell-based
NCI-H1975 [3] = test: cells; type: functional, cell-based, Homo sapiens
[4] = biological target: Epidermal growth factor receptor (Homo sapiens, UniProt P00533, L858R/T790M); test: Inhibition of recombinant human GST-tagged EGFR L858R/T790M double mutant cytoplasmic domain (668 to 1210 residues) expressed in baculovirus expression system by Z'-Lyte assay
L02 = test: Antiproliferative activity against human HL7702 cells after 48 hrs by MTT assay; type: ADME, cell-based
NCI-H1975 [5] = test: Induction of ROS generation in human NCI-H1975 cells harboring EGFR L858R/T790M double mutant at 15 to 60 uM after 4 hrs by DCFH-DA staining based flow cytometry; type: functional, cell-based
NCI-H1975 [6] = test: Induction of ROS generation in human NCI-H1975 cells harboring EGFR L858R/T790M double mutant at 100 uM after 4 hrs by DCFH-DA staining based flow cytometry; type: functional, cell-based
NCI-H1975 [7] = test: Induction of apoptosis in human NCI-H1975 cells harboring EGFR L858R/T790M double mutant assessed as necrotic cells at 9 uM after 48 hrs by Annexin V/propidium iodide staining based flow cytometry (reference value: 4.13%); type: functional
NCI-H1975 [8] = test: Induction of apoptosis in human NCI-H1975 cells harboring EGFR L858R/T790M double mutant assessed as necrotic cells at 3 uM after 48 hrs by Annexin V/propidium iodide staining based flow cytometry (reference value: 4.13%); type: functional
NCI-H1975 [9] = test: Induction of apoptosis in human NCI-H1975 cells harboring EGFR L858R/T790M double mutant after 48 hrs by Annexin V/propidium iodide staining based flow cytometry; type: functional, cell-based
NCI-H1975 [10] = test: Induction of ROS generation in human NCI-H1975 cells harboring EGFR L858R/T790M double mutant assessed as fluorescence level at 6 uM after 4 hrs by DCFH-DA staining based flow cytometry; type: functional
NCI-H1975 [11] = test: Induction of apoptosis in human NCI-H1975 cells harboring EGFR L858R/T790M double mutant assessed as necrotic cells at 6 uM after 48 hrs by Annexin V/propidium iodide staining based flow cytometry (reference value: 4.13%); type: functional
NCI-H1975 [12] = test: Induction of apoptosis in human NCI-H1975 cells harboring EGFR L858R/T790M double mutant assessed as early apoptotic cells at 6 uM after 48 hrs by Annexin V/propidium iodide staining based flow cytometry (reference value: 4.1%); type: functional
NCI-H1975 [13] = test: Induction of apoptosis in human NCI-H1975 cells harboring EGFR L858R/T790M double mutant assessed as late apoptotic cells at 6 uM after 48 hrs by Annexin V/propidium iodide staining based flow cytometry (reference value: 7.2%); type: functional
NCI-H1975 [14] = test: Induction of apoptosis in human NCI-H1975 cells harboring EGFR L858R/T790M double mutant assessed as live cells at 3 uM after 48 hrs by Annexin V/propidium iodide staining based flow cytometry (reference value: 83.5%); type: functional
NCI-H1975 [15] = test: Induction of apoptosis in human NCI-H1975 cells harboring EGFR L858R/T790M double mutant assessed as early apoptotic cells at 3 uM after 48 hrs by Annexin V/propidium iodide staining based flow cytometry (reference value: 4.1%); type: functional
NCI-H1975 [16] = test: Induction of apoptosis in human NCI-H1975 cells harboring EGFR L858R/T790M double mutant assessed as early apoptotic cells at 9 uM after 48 hrs by Annexin V/propidium iodide staining based flow cytometry (reference value: 4.1%); type: functional
NCI-H1975 [17] = test: Induction of ROS generation in human NCI-H1975 cells harboring EGFR L858R/T790M double mutant after 4 hrs by DCFH-DA staining based flow cytometry; type: functional, cell-based
NCI-H1975 [18] = test: Induction of apoptosis in human NCI-H1975 cells harboring EGFR L858R/T790M double mutant assessed as late apoptotic cells at 3 uM after 48 hrs by Annexin V/propidium iodide staining based flow cytometry (reference value: 7.2%); type: functional
NCI-H1975 [19] = test: Induction of ROS generation in human NCI-H1975 cells harboring EGFR L858R/T790M double mutant assessed as fluorescence level at 12 uM after 4 hrs by DCFH-DA staining based flow cytometry; type: functional
NCI-H1975 [20] = test: Induction of apoptosis in human NCI-H1975 cells harboring EGFR L858R/T790M double mutant assessed as live cells at 9 uM after 48 hrs by Annexin V/propidium iodide staining based flow cytometry (reference value: 83.5%); type: functional
NCI-H1975 [21] = test: Induction of apoptosis in human NCI-H1975 cells harboring EGFR L858R/T790M double mutant assessed as increase in cleaved PARP expression at 2.5 to 10 uM after 24 hrs by Western blot method; type: functional, cell-based
NCI-H1975 [22] = test: Induction of apoptosis in human NCI-H1975 cells harboring EGFR L858R/T790M double mutant assessed as live cells at 6 uM after 48 hrs by Annexin V/propidium iodide staining based flow cytometry (reference value: 83.5%); type: functional
NCI-H1975 [23] = test: Induction of apoptosis in human NCI-H1975 cells harboring EGFR L858R/T790M double mutant assessed as late apoptotic cells at 9 uM after 48 hrs by Annexin V/propidium iodide staining based flow cytometry (reference value: 7.2%); type: functional
NCI-H1975 [24] = test: Induction of ROS generation in human NCI-H1975 cells harboring EGFR L858R/T790M double mutant assessed as fluorescence level at 3 uM after 4 hrs by DCFH-DA staining based flow cytometry; type: functional

Epidermal growth factor receptor (Homo sapiens, UniProt P00533), sequence (P00533 whole entry): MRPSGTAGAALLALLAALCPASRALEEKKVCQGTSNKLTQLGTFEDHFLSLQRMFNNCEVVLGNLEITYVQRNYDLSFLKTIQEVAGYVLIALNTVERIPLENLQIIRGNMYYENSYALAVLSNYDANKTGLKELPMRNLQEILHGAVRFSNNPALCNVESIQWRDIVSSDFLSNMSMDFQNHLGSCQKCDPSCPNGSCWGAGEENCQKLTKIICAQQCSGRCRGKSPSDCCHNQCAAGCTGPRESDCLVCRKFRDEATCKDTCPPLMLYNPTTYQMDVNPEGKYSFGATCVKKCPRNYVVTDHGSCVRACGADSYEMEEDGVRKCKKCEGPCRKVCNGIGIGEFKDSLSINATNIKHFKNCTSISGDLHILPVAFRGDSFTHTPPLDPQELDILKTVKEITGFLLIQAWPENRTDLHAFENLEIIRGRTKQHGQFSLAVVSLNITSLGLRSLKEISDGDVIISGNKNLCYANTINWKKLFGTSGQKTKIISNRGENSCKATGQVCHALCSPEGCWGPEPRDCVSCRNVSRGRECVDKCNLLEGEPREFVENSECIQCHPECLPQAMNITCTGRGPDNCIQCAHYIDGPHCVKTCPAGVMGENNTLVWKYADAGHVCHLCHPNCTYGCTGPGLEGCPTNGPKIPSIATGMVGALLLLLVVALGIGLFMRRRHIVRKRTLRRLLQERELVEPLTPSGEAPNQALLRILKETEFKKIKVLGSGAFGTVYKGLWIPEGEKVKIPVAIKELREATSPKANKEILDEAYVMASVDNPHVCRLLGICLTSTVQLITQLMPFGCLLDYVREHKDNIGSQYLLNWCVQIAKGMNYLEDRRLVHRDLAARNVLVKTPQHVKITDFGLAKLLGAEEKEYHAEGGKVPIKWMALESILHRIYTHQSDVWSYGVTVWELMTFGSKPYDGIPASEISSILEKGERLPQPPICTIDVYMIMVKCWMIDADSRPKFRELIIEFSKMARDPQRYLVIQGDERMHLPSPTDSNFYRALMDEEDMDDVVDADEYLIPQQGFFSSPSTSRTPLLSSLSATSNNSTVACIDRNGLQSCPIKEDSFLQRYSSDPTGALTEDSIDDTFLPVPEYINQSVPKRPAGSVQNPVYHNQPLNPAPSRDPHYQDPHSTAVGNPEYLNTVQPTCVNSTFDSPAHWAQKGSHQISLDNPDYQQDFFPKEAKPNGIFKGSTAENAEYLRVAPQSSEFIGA
Epidermal growth factor receptor (Homo sapiens, UniProt P00533, L858R), sequence (P00533 25-1210 L858R limits assumed): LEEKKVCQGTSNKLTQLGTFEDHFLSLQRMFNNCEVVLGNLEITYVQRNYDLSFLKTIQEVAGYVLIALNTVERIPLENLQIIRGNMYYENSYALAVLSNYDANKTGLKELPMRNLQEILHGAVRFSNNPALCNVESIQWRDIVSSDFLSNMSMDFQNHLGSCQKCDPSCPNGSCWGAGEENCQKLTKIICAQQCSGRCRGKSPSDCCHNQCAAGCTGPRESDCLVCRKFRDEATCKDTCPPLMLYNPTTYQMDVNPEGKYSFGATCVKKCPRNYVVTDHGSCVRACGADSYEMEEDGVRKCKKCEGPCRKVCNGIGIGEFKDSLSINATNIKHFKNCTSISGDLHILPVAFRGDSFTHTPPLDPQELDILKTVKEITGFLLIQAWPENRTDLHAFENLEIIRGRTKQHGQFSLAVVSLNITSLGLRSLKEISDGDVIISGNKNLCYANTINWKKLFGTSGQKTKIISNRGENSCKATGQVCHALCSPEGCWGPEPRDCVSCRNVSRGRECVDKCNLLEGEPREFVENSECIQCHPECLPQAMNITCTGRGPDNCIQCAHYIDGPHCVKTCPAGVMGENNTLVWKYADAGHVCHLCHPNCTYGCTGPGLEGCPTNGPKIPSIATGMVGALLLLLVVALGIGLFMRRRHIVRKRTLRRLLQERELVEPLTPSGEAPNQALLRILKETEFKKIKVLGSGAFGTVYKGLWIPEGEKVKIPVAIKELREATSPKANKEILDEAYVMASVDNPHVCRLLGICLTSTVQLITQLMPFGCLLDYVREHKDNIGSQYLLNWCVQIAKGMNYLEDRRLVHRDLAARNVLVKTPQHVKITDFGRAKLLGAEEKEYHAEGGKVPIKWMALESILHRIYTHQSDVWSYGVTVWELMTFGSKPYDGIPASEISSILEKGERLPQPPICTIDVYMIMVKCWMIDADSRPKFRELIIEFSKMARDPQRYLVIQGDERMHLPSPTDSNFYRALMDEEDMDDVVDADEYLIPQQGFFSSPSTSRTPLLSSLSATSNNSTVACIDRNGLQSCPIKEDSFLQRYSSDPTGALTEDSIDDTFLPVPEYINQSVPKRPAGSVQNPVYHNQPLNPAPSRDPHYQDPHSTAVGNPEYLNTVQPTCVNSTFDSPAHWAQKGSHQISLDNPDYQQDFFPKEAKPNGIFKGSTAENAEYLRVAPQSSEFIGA

SMILES	IC50 (HCC827; hcc827)	IC50 [1]	IC50 [2]	IC50 (A-431; a-431)	IC50 (NCI-H1975 [3]; nci-h1975)	IC50 (HCC827; Homo sapiens, HCC827, 48 h)	IC50 [4]	IC50 (A549; Homo sapiens, A549, 48 h)	IC50 (A-431; Homo sapiens, A-431, 48 h)	IC50 (NCI-H1975 [3]; Homo sapiens, NCI-H1975, 48 h)	IC50 (L02; Homo sapiens, L02, 48 h)	further results
O=C(Nc1ccc2ncnc(Nc3cccc(Cl)c3)c2c1)C1CCC2(CC1)OCC1(OO2)C2CC3CC(C2)CC1C3 (stereo in doubt; 8)	10.7 µM	0.175 µM	0.117 µM	23.1 µM	48.5 µM	–	–	–	–	–	–	IC50 (A549; a549): 24.7 µM
O=C(O)C1CCC2(CC1)OOC1(OO2)C2CC3CC(C2)CC1C3 (stereo not given)	–	> 10 µM	> 10 µM	–	–	> 50 µM	> 10 µM	> 100 µM	> 100 µM	> 50 µM	> 100 µM	–
COc1cc2ncnc(Nc3ccc(F)c(Cl)c3)c2cc1OCCCN1CCOCC1	–	–	–	–	–	–	–	–	–	–	–	Activity (NCI-H1975 [5]): inactive
O=C(Nc1ccc2nccc(Nc3cccc(Cl)c3)c2c1)C1CCC2(CC1)OOC1(O2)C2CC3CC(C2)CC1C3 (stereo in doubt; 13)	–	0.236 µM	0.178 µM	> 50 µM	–	12 µM	> 10 µM	25.3 µM	–	33.4 µM	25.5 µM	–
O=C(Nc1ccc2ncnc(Nc3cccc(Cl)c3)c2c1)C1CCCCC1	–	0.00696 µM	0.00613 µM	–	–	2.55 µM	> 10 µM	6.36 µM	> 50 µM	41.8 µM	> 50 µM	–
O=C(Nc1ccc2ncnc(Nc3cccc(Cl)c3)c2c1)C1CCC2(CC1)OOC1(CCCCC1)OO2	–	0.112 µM	0.0838 µM	–	–	0.05 µM	> 10 µM	0.87 µM	3.99 µM	0.89 µM	1.43 µM	–
CC1(C)OOC2(CCC(C(=O)Nc3ccc4ncnc(Nc5cccc(Cl)c5)c4c3)CC2)OO1	–	0.0171 µM	0.0114 µM	–	–	0.26 µM	> 10 µM	3.62 µM	19.6 µM	1.77 µM	25.8 µM	–
Nc1ccc2ncnc(Nc3cccc(Cl)c3)c2c1	0.1 µM	–	–	> 50 µM	> 50 µM	–	–	–	–	–	–	IC50 (A549; a549): > 100 µM; IC50 (L02; l02): > 100 µM
O=C(Nc1ccc2nccc(Nc3cccc(Cl)c3)c2c1)C1CCC2(CC1)OCC1(OO2)C2CC3CC(C2)CC1C3 (stereo not given)	–	0.132 µM	0.169 µM	–	–	31.6 µM	> 10 µM	26.1 µM	> 50 µM	> 50 µM	> 100 µM	Activity (NCI-H1975 [6]): inactive
O=C(Nc1ccc2ncnc(Nc3cccc(Cl)c3)c2c1)C1CCC2(CC1)OCC1(OO2)C2CC3CC(C2)CC1C3 (stereo in doubt; 7)	5.09 µM	0.112 µM	0.0947 µM	–	21.3 µM	–	> 10 µM	18 µM	22 µM	–	> 100 µM	–
O=C(Nc1ccc2ncnc(Nc3cccc(Cl)c3)c2c1)C1CCC2(CC1)OOC1(O2)C2CC3CC(C2)CC1C3 (stereo not given)	–	0.0489 µM	0.0324 µM	–	–	2.29 µM	> 10 µM	8.45 µM	31.5 µM	13 µM	18.2 µM	–
O=C(Nc1ccc2ncnc(Nc3cccc(Cl)c3)c2c1)C1CCC2(CC1)OOC1(OO2)C2CC3CC(C2)CC1C3 (stereo not given)	–	0.374 µM	0.38 µM	–	–	0.31 µM	> 10 µM	0.92 µM	8.06 µM	3.06 µM	5.7 µM	Activity (NCI-H1975 [7]): 9.31%; Activity (NCI-H1975 [8]): 4.57%; Activity (NCI-H1975 [9]): Dose-dependent effect; Flu intensity (NCI-H1975 [10]): 3.53; Activity (NCI-H1975 [11]): 4.26%; Activity (NCI-H1975 [12]): 12.7%; Activity (NCI-H1975 [13]): 8.12%; Activity (NCI-H1975 [14]): 83.5%; Activity (NCI-H1975 [15]): 7.54%; Activity (NCI-H1975 [16]): 7.56%; Activity (NCI-H1975 [17]): Dose-dependent effect; Activity (NCI-H1975 [18]): 7.47%; Flu intensity (NCI-H1975 [19]): 6.42; Activity (NCI-H1975 [20]): 52.2%; Activity (NCI-H1975 [21]): Active; Activity (NCI-H1975 [22]): 74.2%; Activity (NCI-H1975 [23]): 19.8%; Flu intensity (NCI-H1975 [24]): 2.59
O=C(Nc1ccc2nccc(Nc3cccc(Cl)c3)c2c1)C1CCC2(CC1)OOC1(O2)C2CC3CC(C2)CC1C3 (stereo in doubt; 14)	17 µM	0.146 µM	0.128 µM	13.6 µM	22.3 µM	–	–	–	–	–	–	IC50 (A549; a549): 18.3 µM; IC50 (L02; l02): > 50 µM

From ChEMBL document CHEMBL3997839, “Novel conjugates of endoperoxide and 4-anilinoquinazoline as potential anticancer agents” (Bioorg Med Chem Lett, 2017)
